Test results taken from patent US8192962B2, “Processes for detecting toxic substances” (Daikin Industries, Ltd., priority 2001, dated 2012).

System: Unknown protein yeast genes
Test: DNA chip mRNA expression in yeast, unknown protein yeast genes (Table 1)
Format: cell-based, Saccharomyces cerevisiae S288C
Procedure, shortened: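 S. cerevisiae S288C grown at 25° C. in YPD to log phase, then exposed 2 h to a toxicant at a growth-inhibiting, non-lethal concentration; untreated cells as control. Poly(A) mRNA reverse-transcribed with Cy3-dUTP or Cy5-dUTP, hybridized >12 h at 65° C. to whole-genome yeast DNA chip; value = fluorescence ratio treated/untreated.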

Measured: The level of expressed mRNA in the presence of chemical substance/The level of expressed mRNA in the absence of chemical substance

COc1cc(CNC(=O)CCCCC=CC(C)C)ccc1O [(12), 8-methyl-N-vanillyl-6-nonenamide]
1.2: yeast gene YMR097C, incubated two hours with chemical substance | yeast gene YMR180C, incubated two hours with chemical substance | yeast gene YOL083W, incubated two hours with chemical substance
1.3: yeast gene YNR068C, incubated two hours with chemical substance | yeast gene YPL222W, incubated two hours with chemical substance
1.4: yeast gene YOL162W, incubated two hours with chemical substance
2.9: yeast gene YOL150C
2.4: yeast gene YMR102C, incubated two hours with chemical substance
0.9: yeast gene YKR091W, incubated two hours with chemical substance | yeast gene YNL074C, incubated two hours with chemical substance | yeast gene YNL156C, incubated two hours with chemical substance | yeast gene YOL117W, incubated two hours with chemical substance | yeast gene YOL131W, incubated two hours with chemical substance | yeast gene YPL196W, incubated two hours with chemical substance | yeast gene YPR023C, incubated two hours with chemical substance | yeast gene YPR151C, incubated two hours with chemical substance
2.2: yeast gene YMR090W
0.7: yeast gene YNL281W, incubated two hours with chemical substance
1.7: yeast gene YMR184W, incubated two hours with chemical substance
1.1: yeast gene YKL153W, incubated two hours with chemical substance | yeast gene YKL195W, incubated two hours with chemical substance | yeast gene YLR054C, incubated two hours with chemical substance | yeast gene YLR387C, incubated two hours with chemical substance | yeast gene YMR067C, incubated two hours with chemical substance | yeast gene YMR295C, incubated two hours with chemical substance | yeast gene YNL092W, incubated two hours with chemical substance | yeast gene YNL234W, incubated two hours with chemical substance | yeast gene YNL305C, incubated two hours with chemical substance
0.6: yeast gene YKL086W, incubated two hours with chemical substance | yeast gene YMR009W, incubated two hours with chemical substance | yeast gene YOR129C
1.9: yeast gene YMR316W, incubated two hours with chemical substance
1.8: yeast gene YLR350W, incubated two hours with chemical substance | yeast gene YMR191W, incubated two hours with chemical substance | yeast gene YPL087W, incubated two hours with chemical substance
1.0: yeast gene YKL151C, incubated two hours with chemical substance | yeast gene YLR152C, incubated two hours with chemical substance | yeast gene YNL044W, incubated two hours with chemical substance | yeast gene YOL032W, incubated two hours with chemical substance | yeast gene YOL036W, incubated two hours with chemical substance | yeast gene YOL071W, incubated two hours with chemical substance | yeast gene YOL082W, incubated two hours with chemical substance | yeast gene YOR019W, incubated two hours with chemical substance | yeast gene YOR197W, incubated two hours with chemical substance
0.8: yeast gene YLR324W, incubated two hours with chemical substance | yeast gene YML117W, incubated two hours with chemical substance | yeast gene YMR095C, incubated two hours with chemical substance | yeast gene YMR107W, incubated two hours with chemical substance | yeast gene YNL115C, incubated two hours with chemical substance | yeast gene YOL047C, incubated two hours with chemical substance | yeast gene YPL206C, incubated two hours with chemical substance
0.4: yeast gene YLR460C
2.0: yeast gene YLR149C, incubated two hours with chemical substance
1.6: yeast gene YLR194C, incubated two hours with chemical substance
